Assays:
[1] = Solubility studies with curcumin in organic solvents and solvent + water mixtures; assay type: physicochemical
Experimental: For oral solutions, curcumin must be dissolved. The solvents listed in Table 1 have been tested for this purpose. The maximum concentration of curcumin that could be dissolved is listed for each solvent. If curcumin was soluble, water was added to the solvents and the solubility in this mixture was also determined: […]

[2] = Storage stability of liquid curcumin formulations under accelerated conditions (HPLC); assay type: physicochemical

% Solubility (w/v) ([1]; Collidone 12 + water 4 + 6): 0 % (w/v)
% Solubility (w/v) ([1]; Collidone12 + water 5 + 5): 0 % (w/v)
% Solubility (w/v) ([1]; Collidone 17 + water 4 + 6): 0 % (w/v)
% Solubility (w/v) ([1]; Collidone 17 + water 5 + 5): 0 % (w/v)
% Solubility (w/v) ([1]; N-Ethyl-2-pyrrolidone + water 6 + 4): 4 % (w/v)
% Solubility (w/v) ([1]; N-Ethyl-2-pyrrolidone + water 7 + 3): 5 % (w/v)
% Solubility (w/v) ([1]; N-Methyl-2-pyrrolidone + water 6 + 4): 4 % (w/v)
% Solubility (w/v) ([1]; N-Methyl-2-pyrrolidone + water 7 + 3): 4 % (w/v)
% Solubility (w/v) ([1]; PEG 300 + water 8 + 2): 2.5 % (w/v)
% Solubility (w/v) ([1]; PEG 300 + water 9 + 1): 2.5 % (w/v)
% Solubility (w/v) ([1]; PVP + water 3 + 7): 0 % (w/v)
% Solubility (w/v) ([1]; Pluronic F-68 + water 3 + 7): 0 % (w/v)
% Solubility (w/v) ([1]; Pyrrolidone + water 1 + 9): 1 % (w/v)
% Solubility (w/v) ([1]; Pyrrolidone + water 5 + 5): 2.5 % (w/v)
% Solubility (w/v) ([1]; Pyrrolidone + water 6 + 4): 3 % (w/v)
% Solubility (w/v) ([1]; Pyrrolidone + water 7 + 3): 5 % (w/v)
% Solubility (w/v) ([1]; Pyrrolidone + water 9 + 1): 5 % (w/v)
% Solubility (w/v) ([1]; solvent Capmul): 0 % (w/v)
% Solubility (w/v) ([1]; solvent Cremophor): 0 % (w/v)
% Solubility (w/v) ([1]; solvent Dimethylacetamide): 4 % (w/v)
% Solubility (w/v) ([1]; solvent Glycerol): 0 % (w/v)
% Solubility (w/v) ([1]; solvent Hydrogenated peanut oil): 0 % (w/v)
% Solubility (w/v) ([1]; solvent Labrafil): 3 % (w/v)
% Solubility (w/v) ([1]; solvent Labrasol): 0 % (w/v)
% Solubility (w/v) ([1]; solvent N-Ethyl-2-pyrrolidone): 30 % (w/v)
% Solubility (w/v) ([1]; solvent N-Methyl-2-pyrrolidone): 30 % (w/v)
% Solubility (w/v) ([1]; solvent PEG 300): 2.5 % (w/v)
% Solubility (w/v) ([1]; solvent PVA): 0 % (w/v)
% Solubility (w/v) ([1]; solvent Pluronic L44): 3 % (w/v)
% Solubility (w/v) ([1]; solvent Propylene glycol): 0 % (w/v)
% Solubility (w/v) ([1]; solvent Pyrrolidone): 20 % (w/v)
% Solubility (w/v) ([1]; solvent Refined corn oil): 0 % (w/v)
Stability in storage of curcumin in PEG formulations [2]: comparatively high stability in storage
Compound: COc1cc(/C=C/C(=O)CC(=O)/C=C/c2ccc(O)c(OC)c2)ccc1O [curcumin]

From patent US20130052145A1, “ADHESIVE SLOW-RELEASE FORMULATIONS FOR THE LOCAL ADMINISTRATION OF CURCUMIN” (Orphanidis Pharma Research GmbH, priority 2010, published 2013)
